From paper PMC4805166, “Synthetic Cyclolipopeptides Selective against Microbial, Plant and Animal Cell Targets by Incorporation of D-Amino Acids or Histidine” (PLoS ONE, 2016)
Where a SMILES comes first, the peptide text is derived from it. Side-chain parts run from the residue outwards. [ ]: non-standard residue; d: D form. The star is where a group is joined. Pentanoyl(4-Me) = CC(C)CCC(=O)*; Hexanoyl = CCCCCC(=O)*; Butyryl = CCCC(=O)*

Legend:
[1] = tested on: Fusarium oxysporum f. sp. lycopersici FOL 3 race 2; assay: MIC, antifungal growth inhibition; type: cell-based; conditions: PDB with 0.003% chloramphenicol, 20°C, seven days, OD 600 nm; tested at 3.1, 6.2, 12.5, 25, 50 μM; three replicates, repeated twice
How it was run: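 Microconidia are grown on PDA at 25 °C and adjusted to 10^4 conidia/mL. Peptide stocks of 500, 250, 125, 62.5 and 31.1 µM (stock, not final) are mixed with conidia in double-concentrated PDB with 0.003% chloramphenicol, in triplicate, and incubated at 20 °C. OD600 is read every 2 h for seven days, and MIC is the lowest concentration with no growth at the end.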

[2] = tested on: Xanthomonas axonopodis pv. vesicatoria 2133–2; type: cell-based; conditions: TSB, 25°C, 48 h, OD 600 nm; tested at 3.1, 6.2, 12.5, 25, 50 μM; three replicates, experiment repeated twice; MIC = lowest concentration with no growth
How it was run: (§1)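 Peptide dilutions (stocks 500–31.1 μM) mixed 1:10 with 10^8 CFU/mL bacterial suspension in TSB. Incubated 25 °C, OD600 read hourly for 48 h, triplicates, repeated twice. MIC: lowest concentration with no growth at end.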

[3] = tested on: Pseudomonas syringae pv. syringae EPS94; type: cell-based; conditions: 48 h
How it was run: as §1

[4] = tested on: Erwinia amylovora PMV6076; assay: MIC, in vitro growth inhibition; type: cell-based; conditions: TSB, 25°C, 48 h, OD 600 nm; tested at 3.1, 6.2, 12.5, 25, 50 μM; three replicates, experiment repeated twice; MIC = lowest concentration with no growth
How it was run: as §1

[5] = tested on: X. axonopodis pv. vesicatoria; assay: Bactericidal activity (killing assay); type: cell-based, Xanthomonas axonopodis pv. vesicatoria; conditions: 5 μM peptide, LB broth, aliquots every 30 min during 3 h, viable counts; triplicates
Protocol: In a total volume of 5 mL, 4 mL of Luria-Bertani (LB) broth were mixed with 0.5 ml of a suspension of X. axonopodis pv. vesicatoria adjusted to 10^8 CFU mL^-1 and 0.5 mL of the peptide solution at 50 μM (final concentration at 5 μM). Aliquots of 500 μL were removed at 30-min intervals during 3 h and the appropriate dilutions were spread onto LB agar using a spiral plater (Eddy Jet; IUL instruments, Spain). Triplicates were performed and colonies were counted after 48 h of incubation at 25°C with an automatic counter (Flash and Go; IUL instruments, Spain) by incorporating the software CounterMat version 5.0.

[6] = tested on: erythrocyte suspensions of horse blood; conditions: horse erythrocytes 5% vol/vol, TRIS buffer pH 7.2, 1 h at 37°C, absorbance 540 nm, relative to melittin 100 μM, ± confidence interval (α = 0.05); for Hemolysis (%) 150 µM: 150 µM peptide; for Hemolysis (%) 250 µM: 250 µM peptide;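 as to all read-outs here: Read-out is hemoglobin release into the supernatant, with a buffer-only blank subtracted as the 0% baseline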
Protocol: Blood was centrifuged at 6000g for 5 min, washed three times with TRIS buffer (10 mM TRIS, 150 mM NaCl, pH 7.2) and diluted.
Compounds were solubilized in TRIS buffer and mixed with horse erythrocytes and the final concentrations tested were 250 and 150 μM. The mixture was incubated under continuous shaking for 1 h at 37°C. Then, the tubes were centrifuged at 3500g for 10 min, 80 μL aliquots of the supernatant transferred to 100-well microplates (Bioscreen), diluted with 80 μL water, and the absorbance measured at 540 nm (Bioscreen). Complete hemolysis was obtained by the addition of melittin at 100 μM (Sigma-Aldrich Corporation, Madrid, Spain). The percentage of hemolysis (H) was calculated using the equation: H = 100×[(Op−Ob)/(Om−Ob)], where Op was the density for a given compound concentration, Ob for the buffer, and Om for the melittin positive control.

[7] = tested on: E. amylovora, P. syringae pv. syringae, X. axonopodis pv. vesicatoria and F. oxysporum; type: cell-based; conditions: for Antimicrobial activity, in words: authors' overall judgement over the pathogens tested
Protocol: The following plant pathogenic bacterial strains were used: Erwinia amylovora PMV6076 (Institut National de la Recherche Agronomique, Angers, France), Pseudomonas syringae pv. syringae EPS94 (Institut de Tecnologia Agroalimentària, Universitat de Girona, Spain) and Xanthomonas axonopodis pv. vesicatoria 2133–2 (Instituto Valenciano de Investigaciones Agrarias, Valencia, Spain). All bacteria were stored in Luria Bertani (LB) broth supplemented with glycerol (20%) and maintained at -80°C. Bacteria were scrapped from LB agar after growing for 24–48 h at 25°C. The cell material was suspended in sterile water to obtain a suspension of 10^8 CFU mL^-1.
Fusarium oxysporum f. sp. lycopersici FOL 3 race 2 (ATCC 201829, American Type Culture Collection) was used as fungal pathogen. The strain was cultured on potato dextrose agar (PDA) plates (Difco) and microconidia were obtained after growth at 25°C. The concentration of conidia was determined using a hemacytometer and adjusted to 10^4 conidia mL^-1.
Lyophilized peptides were solubilized in sterile Milli-Q water to a final concentration of 1 mM and filter sterilized through a 0.22-μm pore filter. For minimum inhibitory concentration (MIC) assessment, dilutions of the compounds were made to obtain a stock concentration of […]. For antibacterial activity twenty microlitres of each dilution were mixed in a microtiter plate well with 20 μL of the corresponding suspension of the bacterial indicator, 160 μL of Trypticase Soy Broth (TSB) (BioMèrieux, France) to a total volume of 200 μL. For antifungal activity 20 μL of each stock solution were mixed in a microtiter plate well with 80 μL of the corresponding suspension of the fungal pathogen and 100 μL of double concentrated PDB to a total volume of 200 μL containing 0.003% w/v of choramphenicol.
Three replicates for each strain, compound and concentration were used. Microbial growth was determined by optical density measurement at 600 nm (Bioscreen C, Labsystem, Helsinki, Finland). For antibacterial activity microplates were incubated at 25°C with 20 sec shaking before hourly absorbance measurement for 48 h. For antifungal activity microplates were incubated at 20°C with 1 min shaking before absorbance measurement that were done every two hours during seven days. The experiment was repeated twice. The MIC was taken as the lowest compound concentration with no growth at the end of the experiment.

tobacco leaves = assay: Phytotoxicity by infiltration of tobacco leaves; type: in vivo; conditions: 250 μM, 100 μL infiltrated into mesophyll of tobacco leaves, 48 h after infiltration; at least three inoculations
Protocol: Peptide solutions of 50, 100, 150 and 250 μM were infiltrated (100 μL) into the mesophylls of fully expanded tobacco leaves. Six independent inoculations were carried out in a single leaf, and at least three independent inoculations were performed per peptide and concentration randomly distributed in diferent leaves and plants. Control infiltrations with water (negative control) or mellitin (positive control) at the same molar concentration were performed. The appearance of symptoms on the leaves was followed for 48 h after infiltration and measured as a lesion diameter.

CCCC(=O)NCCCC[C@@H]1NC(=O)[C@H](CCCCN)NC(=O)[C@H](CC(C)C)NC(=O)[C@H](CCCCN)NC(=O)[C@H](CCCCN)NC(=O)[C@H](CCC(N)=O)NC(=O)[C@H](CC(C)C)NC(=O)[C@H](CCCCN)NC(=O)[C@H](CCCCN)NC(=O)[C@H](Cc2ccccc2)NC1=O [BPC500, c(KKLKK(CO-C3H7)FKKLQ)] (cyclo(FKKLQKKLKK(Butyryl)))
MIC Fo [1]: <3.1 µM | MIC Xav [2]: <3.1 µM | MIC Pss [3]: 6.2 to 12.5 µM | MIC Ea [4]: 12.5 to 25 µM | Bactericidal activity (kinetics of survival) [5]: bactericidal activity | Hemolysis (%) 150 µM [6]: 28 ± 5% | Hemolysis (%) 250 µM [6]: 38 ± 4% | MIC against three pathogens ([7]; three of the four pathogens tested): < 12.5 µM

CC(C)CCC(=O)NCCCC[C@H]1NC(=O)[C@H](CCCCN)NC(=O)[C@H](CC(C)C)NC(=O)[C@H](CCCCN)NC(=O)[C@H](CCCCN)NC(=O)[C@H](CCC(N)=O)NC(=O)[C@H](CC(C)C)NC(=O)[C@H](CCCCN)NC(=O)[C@H](CCCCN)NC(=O)[C@@H](Cc2ccccc2)NC1=O [BPC634, c(KKLKk(CO-isoC5H11)fKKLQ)] (cyclo(KKLK[dK](Pentanoyl(4-Me))[dF]KKLQ))
MIC Fo [1]: 6.2 to 12.5 µM | MIC Xav [2]: 25 to 50 µM | MIC Pss [3]: 12.5 to 25 µM | MIC Ea [4]: >50 µM | Hemolysis (%) 150 µM [6]: 7 ± 1% | Hemolysis (%) 250 µM [6]: 17 ± 8% | Antimicrobial activity, in words [7]: low active

CCCCCC(=O)N[C@@H](CCCCN)C(=O)N[C@@H](CC(C)C)C(=O)NCCCC[C@@H]1NC(=O)[C@H](CCCCN)NC(=O)[C@H](CC(C)C)NC(=O)[C@H](CCCCN)NC(=O)[C@H](CCCCN)NC(=O)[C@H](CCC(N)=O)NC(=O)[C@H](CC(C)C)NC(=O)[C@H](CCCCN)NC(=O)[C@H](CCCCN)NC(=O)[C@H](Cc2c[nH]cn2)NC1=O [BPC676, c(KKLKK(LK-CO-nC5H11)HKKLQ)] (cyclo(HKKLQKKLKK([Leu-Lys-Hexanoyl])))
MIC Fo [1]: 3.1 to 6.2 µM | MIC Xav [2]: 6.2 to 12.5 µM | MIC Pss [3]: 12.5 to 25 µM | MIC Ea [4]: 25 to 50 µM | Bactericidal activity (kinetics of survival) [5]: bactericidal activity | Hemolysis (%) 150 µM [6]: 3 ± 0.3%

CCCCCC(=O)NCCCC[C@@H]1NC(=O)[C@H](CCC(N)=O)NC(=O)[C@H](CC(C)C)NC(=O)[C@H](CCCCN)NC(=O)[C@H](CCCCN)NC(=O)[C@@H](Cc2ccccc2)NC(=O)[C@H](CCCCN)NC(=O)[C@H](CCCCN)NC(=O)[C@H](CC(C)C)NC(=O)[C@H](CCCCN)NC1=O [BPC686, c(K(CO-nC5H11)KLKKfKKLQ)] (cyclo(K(Hexanoyl)KLKK[dF]KKLQ))
MIC Fo [1]: 12.5 to 25 µM | MIC Xav [2]: 6.2 to 12.5 µM | MIC Pss [3]: 12.5 to 25 µM | MIC Ea [4]: 25 to 50 µM | Bactericidal activity (kinetics of survival) [5]: bactericidal activity | Hemolysis (%) 150 µM [6]: 10 ± 0.2% | Hemolysis (%) 250 µM [6]: 14 ± 0.4%

CCCCCC(=O)NCCCC[C@@H]1NC(=O)[C@H](CCC(N)=O)NC(=O)[C@H](CC(C)C)NC(=O)[C@H](CCCCN)NC(=O)[C@H](CCCCN)NC(=O)[C@H](Cc2c[nH]cn2)NC(=O)[C@H](CCCCN)NC(=O)[C@H](CCCCN)NC(=O)[C@H](CC(C)C)NC(=O)[C@H](CCCCN)NC1=O [BPC688] (cyclo(HKKLQK(Hexanoyl)KLKK))
MIC Fo [1]: 12.5 to 25 µM | MIC Xav [2]: 25 to 50 µM | MIC Pss [3]: 25 to 50 µM | MIC Ea [4]: >50 µM | Hemolysis (%) 150 µM [6]: 1 ± 2% | Hemolysis (%) 250 µM [6]: 1 ± 0.2% | Phytotoxicity, size of the lesions (necrosis diameter) (tobacco leaves): 0–0.38 cm

CCCC(=O)NCCCC[C@@H]1NC(=O)[C@H](CCCCN)NC(=O)[C@H](CCC(N)=O)NC(=O)[C@H](CC(C)C)NC(=O)[C@H](CCCCN)NC(=O)[C@H](CCCCN)NC(=O)[C@H](Cc2ccccc2)NC(=O)[C@H](CCCCN)NC(=O)[C@H](CCCCN)NC(=O)[C@H](CC(C)C)NC1=O [BPC708] (cyclo(FKKLQKK(Butyryl)LKK))
MIC Fo [1]: 3.1 to 6.2 µM | MIC Xav [2]: 6.2 to 12.5 µM | MIC Pss [3]: 12.5 to 25 µM | MIC Ea [4]: 25 to 50 µM | Hemolysis (%) 150 µM [6]: 2 ± 0.5% | Hemolysis (%) 250 µM [6]: 3 ± 1% | Antimicrobial activity, in words [7]: active

CCCC(=O)NCCCC[C@@H]1NC(=O)[C@H](CCCCN)NC(=O)[C@H](CCC(N)=O)NC(=O)[C@H](CC(C)C)NC(=O)[C@H](CCCCN)NC(=O)[C@H](CCCCN)NC(=O)[C@@H](Cc2ccccc2)NC(=O)[C@H](CCCCN)NC(=O)[C@H](CCCCN)NC(=O)[C@H](CC(C)C)NC1=O [BPC714, c(KK(CO-C3H7)LKKfKKLQ)] (cyclo(KK(Butyryl)LKK[dF]KKLQ))
MIC Fo [1]: 6.2 to 12.5 µM | MIC Xav [2]: 12.5 to 25 µM | MIC Pss [3]: 25 to 50 µM | MIC Ea [4]: 25 to 50 µM | Bactericidal activity (kinetics of survival) [5]: bactericidal activity | Hemolysis (%) 150 µM [6]: 3 ± 1% | Hemolysis (%) 250 µM [6]: 3 ± 0.5%

CCCC(=O)N[C@@H](CCCCN)C(=O)N[C@@H](CC(C)C)C(=O)NCCCC[C@@H]1NC(=O)[C@H](CCCCN)NC(=O)[C@H](CC(C)C)NC(=O)[C@H](CCCCN)NC(=O)[C@H](CCCCN)NC(=O)[C@H](CCC(N)=O)NC(=O)[C@H](CC(C)C)NC(=O)[C@H](CCCCN)NC(=O)[C@H](CCCCN)NC(=O)[C@H](Cc2c[nH]cn2)NC1=O [BPC728, c(KKLKK(LK-CO-C3H7)HKKLQ)] (cyclo(HKKLQKKLKK([Leu-Lys-Butyryl])))
MIC Fo [1]: <3.1 µM | MIC Xav [2]: 6.2 to 12.5 µM | MIC Pss [3]: 12.5 to 25 µM | MIC Ea [4]: >50 µM | Bactericidal activity (kinetics of survival) [5]: bactericidal activity | Hemolysis (%) 150 µM [6]: 0%

melittin [mellitin, reference compound]
Phytotoxicity, size of the lesions (necrosis diameter) (tobacco leaves): around 2 cm
